The test system of one assay is leukemic blasts. As to the kind of experiment: Patient leukemia response to treatment (percentage of leukemic blasts in BM, clinical assessments compared with simulation). The assay is classed as in vivo, human. Particulars: one patient. From the text: FIGS. 9A and 9B show examples of visual representations of retrospective comparisons of dynamic prediction of the overall percentage of abnormal cells/leukemic blasts (lines) determined using the method according to embodiments and patient clinical assessments (dots).
FIGS. 9A and 9B show examples of visualizations of dynamic prediction of the overall percentage of leukemic blasts. By showing the percentage of overall leukemic blasts (addition of all subclones) in graphs, the leukemic burden in BM can be visualized.

A short description of assay [1]: Patient peripheral blood / neutrophil recovery during treatment. Particulars: one patient, 4 cycles of low-dose treatment (FIG. 10A, 11A). Type of assay: in vivo, human. From the text:
FIGS. 10A and 10B show examples of visual representations of dynamic prediction of peripheral blood recovery determined using the method according to embodiments.
FIGS. 11A and 11B show examples of visual representations of retrospective comparisons of dynamic prediction of absolute neutrophils count (lines) determined using the method according to embodiments and patient clinical assessment of daily neutrophils count during treatment (dots).
The patient initially presented with granulocytic dysplasia that delayed neutrophil recovery.

Where only a bound is given, the exact number is not on record here.

Turning to `Nc1ccn([C@@H]2O[C@H](CO)[C@@H](O)[C@@H]2O)c(=O)n1` [Ara-C, Cytosine Arabinoside], the treatment outcome in the assay on leukemic blasts (2 cycles of low-dose treatment (FIG. 9A)) is “complete remission”; in the assay with leukemic blasts (4 cycles of low-dose treatment (FIG. 10A, 11A)), “complete remission”. This molecule also came in with a leukemic blasts in the assay with leukemic blasts (2 cycles of low-dose treatment (FIG. 9A), bone marrow) of under 5%. In addition, in assay [1], the hematological recovery entry is “complete hematological recovery”.

Source of the values: patent US20240428951A1, “METHODS AND SYSTEMS FOR PERSONALIZED IN-SILICO HEMATOPOIESIS AND DISEASE/LEUKEMIA SIMULATION FOR TREATMENT SELECTION AND OPTIMIZATION” (GEORGIA TECH RESEARCH CORPORATION, priority 2021, published 2024).
